Experimental data: patent US12263156B2, “Use of small molecule inhibitors of the BfrB:Bfd interaction in biofilms” (priority 2020, dated 2025)

Experiments:
[1] = test system: P. aeruginosa PAO1 pellicle cells; assay: Total intracellular iron in biofilm-embedded cells; assay type: cell-based, Pseudomonas aeruginosa; details: 24 h; KM-5-25 40 μM, KM-5-66 20 μM
Source text: Recombinant BfrB (BfrBrec) was used as a standard for the electrophoretic mobility of BfrB. The lane corresponding to untreated control was loaded with 0.5× the volume of the lanes loaded with lysates from treated pellicles to account for the ˜2-fold larger number of viable cells in the untreated pellicles. Lanes loaded with treated pellicle lysates show greater accumulation of iron in BfrB relative to untreated cells. […] (A), (C) and (D) show the average of results from 3 biological replicates, p<0.001 is denoted by *** relative to untreated.
Pellicle biofilms were grown for 48 hours as described above. The pellicles were transferred onto square (2 cm×2 cm) glass coverslips by gently contacting the pellicle with the coverslip. […] Levels of total intracellular iron were determined as reported previously:^23, 86 the cell pellets were treated with 500 μL of freshly prepared digestion reagent (0.6 N HCl, 2.25% (w/v) KMnO4 in water), thoroughly mixed by vortexing, and then incubated at 65° C. for 3.5 hours. […] The iron concentration was measured from the absorbance of the Fe^2+-Ferene S complex (ε593=34.5 mM^−1 cm^−1),^87 normalized by the viable cell counts and reported as Fe atoms per cell. […]

[2] = test system: EYFP-expressing P. aeruginosa PAO1 pellicle biofilms; assay: Determination of viable cells (CFU/mL) in pellicle biofilms; details: for % survival relative to cells in the pre-treated biofilm / viable cell count as % of the cells in the untreated pellicle / % survival, combination treatment: 24 h; for viable cell count as % of the cells in the untreated pellicle: KM-5-25 40 μM, KM-5-66 20 μM; for relative compound activity (rank order): pellicles treated 24 h with 50 μM of each analog
Experimental: Pellicle biofilms of EYFP-expressing P. aeruginosa PAO1 or clinical isolates were grown in PI media supplemented with 20 μM Fe. Starter cultures were diluted to OD600=0.001 in 4 mL media, placed in 35×10 mm petri dishes and incubated statically at 30° C. for 48 hours. The pellicles were transferred onto circular (1.5 cm diameter) glass coverslips by gently allowing the surface of a coverslip to contact a pellicle. The pellicle-adhered coverslip was washed in PBS and then deposited on top of 1.5 mL of AB challenge media contained in a well of a 12-well microplate, with the pellicle exposed to the media. […] The coverslip-adhered pellicles were exposed to challenge media at 30° C. for 24 hours, changing the challenge media every 12 hours by transferring the pellicle-adhered coverslip to a new plate containing pre-warmed challenge media.
Pellicle biofilms were grown as described above. Planktonic and loosely attached cells were washed (3 times) by immersing the coverslip-adhered pellicles (biofilm facing up) into a well of a 12-well plate containing 3 mL of PBS, and incubating (5 min) with gentle rocking. To remove the pellicle from the coverslip, break the extracellular matrix and release cells from the biofilm, the coverslip-adhered pellicle was placed in a 50 mL conical tube containing a 2 mL suspension of zirconia beads (0.1 mm diameter, BioSpec Products), 10 mL PBS, 0.2 μg/mL alginate lyase and 0.2 μg/mL DNAse. The resultant mixture was incubated at room temperature for 3 min, followed by vigorous vortexing for 4 min. After sedimentation of the zirconia beads, a 100 μL aliquot was used for serial dilution and plating on PIA plates for subsequent enumeration of viable cells (CFU/mL).
To assess the efficacy of antibiotics and compounds with an approach complementary to imaging with CLSM, dispersing biofilm cells for subsequent enumeration of viable cells (CFU/mL) was resorted to. […] The biofilms were then harvested, and the cells dispersed into sterile PBS by vortexing in the presence of zirconia beads, prior to plating the cell suspensions for subsequent enumeration of CFU/mL. […] A characteristic of cells in the VBNC state is their inability to develop into colonies on routine culture media, even though the cells remain viable for long periods of time.^58-59 Evidence that bacterial cells can enter the VBNC has been obtained by several distinct methods,^59 one of which is the utilization of bacteria engineered to constitutively express bioluminescent proteins, and using the bioluminescence as a reporter of metabolic activity.

[3] = 0.6× the IC50 (KM-5-25 40 μM; KM-5-66 30 μM)
[4] = 1.2× the IC50 (KM-5-25 80 μM; KM-5-66 50 μM)
[5] = analog at 1.2× the IC50 combined with colistin at 25× the MIC
[6] = analog at 1.2× the IC50 combined with colistin at 25× the MIC (20 μM)
[7] = analog at 1.2× the IC50 combined with colistin at 50× the MIC
[8] = analog at 1.2× the IC50 combined with colistin at 50× the MIC (40 μM)
[9] = analog at 1.2× the IC50 combined with tobramycin at 25× the MIC
[10] = analog at 1.2× the IC50 combined with tobramycin at 50× the MIC

O=C1NC(=O)c2c(NCc3cc(Cl)ccc3O)cccc21 [KM-5-25]
total intracellular iron normalized to viable cell counts, relative to untreated biofilms [1]: ~2.5 fold | % survival relative to cells in the pre-treated biofilm [2, 3]: ~38% | % survival relative to cells in the pre-treated biofilm [2, 4]: ~25% | viable cell count as % of the cells in the untreated pellicle [2]: 42% | log reduction of viable cells relative to colistin alone [2, 5]: ~1 log | % survival, combination treatment [2, 6]: ~1% | log reduction of viable cells relative to colistin alone [2, 7]: ~0.7 log | % survival, combination treatment [2, 8]: ~0.5% | log reduction of viable cells relative to tobramycin alone [2, 9]: approximately 2.5 log | % survival, combination treatment [2, 9]: ~0.5% | log reduction of viable cells relative to tobramycin alone [2, 10]: ~4.7 log | % survival, combination treatment [2, 10]: ~0.003% | relative compound activity (rank order) [2]: KM-5-66>KM-5-25>16>11

O=C1NC(=O)c2c(NCCCc3cc(O)cc(Cl)c3)cccc21 [KM-5-66]
total intracellular iron normalized to viable cell counts, relative to untreated biofilms [1]: ~2.5 fold | % survival relative to cells in the pre-treated biofilm ([2]; 0.3× the IC50 (KM-5-66 15 μM)): approximately 57% | % survival relative to cells in the pre-treated biofilm [2, 3]: ~21% | % survival relative to cells in the pre-treated biofilm [2, 4]: ~15% | viable cell count as % of the cells in the untreated pellicle [2]: 37% | log reduction of viable cells relative to colistin alone [2, 5]: approximately 1.7 log | % survival, combination treatment [2, 6]: ~0.3% | log reduction of viable cells relative to colistin alone [2, 7]: ~1.9 log | % survival, combination treatment [2, 8]: ~0.02% | log reduction of viable cells relative to tobramycin alone [2, 9]: approximately 1.5 log | % survival, combination treatment [2, 9]: 5% | log reduction of viable cells relative to tobramycin alone [2, 10]: ~2 log | % survival, combination treatment [2, 10]: 1% | relative compound activity (rank order) [2]: KM-5-66>KM-5-25>16>11
